Laboratory results reported in patent publication US10597388B2, “Pyridazinone herbicides” (FMC CORPORATION, priority 2014, dated 2020).

Columns and labels:
Test in all cases: Test D controlled growth environment herbicide test, pre- and postemergence
Type in all cases: in vivo
[1] = test system: galium (catchweed bedstraw, Galium aparine)
Method in brief: (§1)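 Rating is visual, 0–100 scale (100 = complete control), made against untreated plants 14–21 d after treatment in controlled growth conditions. Postemergence sprays went onto 1- to 4-leaf plants in peat medium; preemergence sprays onto silt loam after sowing; formulation included a surfactant.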

[2] = test system: bluegrass (annual bluegrass, Poa annua)
Method in brief: as §1

[3] = test system: canarygrass (Phalaris minor)
Method in brief: as §1

[4] = test system: chamomile (scentless chamomile, Matricaria inodora)
Method in brief: as §1

kochia (Kochia scoparia) = test system: kochia (Kochia scoparia)
Method in brief: as §1

[5] = test system: buckwheat, wild (wild buckwheat, Polygonum convolvulus)
Method in brief: as §1

[6] = test system: barley, spring (spring barley, Hordeum vulgare)
Method in brief: as §1

[7] = test system: barley, winter (winter barley, Hordeum vulgare)
Method in brief: as §1

[8] = test system: lambsquarters (Chenopodium album)
Method in brief: as §1

[9] = test system: pigweed (Amaranthus retroflexus)
Method in brief: as §1

[10] = test system: field violet (Viola arvensis)
Method in brief: as §1

[11] = test system: radish, wild (wild radish, Raphanus raphanistrum)
Method in brief: as §1

[12] = test system: windgrass (Apera spica-venti)
Method in brief: as §1

[13] = test system: field poppy (Papaver rhoeas)
Method in brief: as §1

[14] = Postemergence, 31 g ai/ha, scale 0 to 100 (0 no effect, 100 complete control)
[15] = Postemergence, 125 g ai/ha, visual rating on scale 0 (no effect) to 100 (complete control), 14 to 21 d
[16] = Postemergence, 250 g ai/ha, scale 0 to 100 (0 no effect, 100 complete control)
[17] = Preemergence, 125 g ai/ha, scale 0 to 100 (0 no effect, 100 complete control)
[18] = Preemergence, 250 g ai/ha, scale 0 to 100, 0 no effect, 100 complete control
[19] = postemergence, 62 g ai/ha, scale 0 to 100, 0 no effect, 100 complete control
[20] = Preemergence, 62 g ai/ha, scale 0 to 100 (0 no effect, 100 complete control)

CC(=O)Oc1c(C)nn(C)c(=O)c1-c1c(C)sc2ccc(Cl)cc12 [Compound 108]
Galium plant response rating [1, 14]: 90 | Plant response rating, Galium [1, 15]: 100 | Plant response rating, Galium [1, 16]: 100 | Plant response rating (scale of 0 to 100), Galium ([1]; Preemergence, 31 g ai/ha): 60 | Plant response rating (scale of 0 to 100), Galium ([1]; Preemergence, 62 g ai/ha): 70 | Plant response rating, Galium [1, 17]: 95 | Plant response rating, Galium [1, 18]: 100 | Plant response rating, Galium [1, 19]: 95 | Bluegrass plant response rating [2, 14]: 5 | Plant response rating, Bluegrass [2, 15]: 25 | Plant response rating, Bluegrass [2, 16]: 35 | Plant response rating (scale of 0 to 100), Bluegrass ([2]; Preemergence, 31 g ai/ha): 10 | Plant response rating, Bluegrass [2, 20]: 15 | Plant response rating, Bluegrass [2, 17]: 35 | Plant response rating, Bluegrass [2, 18]: 75 | Plant response rating, Bluegrass [2, 19]: 10 | Canarygrass plant response rating [3, 14]: 40 | Plant response rating, Canarygrass [3, 15]: 80 | Plant response rating, Canarygrass [3, 16]: 80 | Plant response rating (scale of 0 to 100), Canarygrass ([3]; Preemergence, 31 g ai/ha): 45 | Plant response rating (scale of 0 to 100), Canarygrass ([3]; Preemergence, 62 g ai/ha): 80 | Plant response rating, Canarygrass [3, 17]: 90 | Plant response rating, Canarygrass [3, 18]: 95 | Plant response rating, Canarygrass [3, 19]: 50 | Chamomile plant response rating [4, 14]: 75 | Plant response rating, Chamomile [4, 15]: 95 | Plant response rating, Chamomile [4, 16]: 100 | Plant response rating, Chamomile [4, 19]: 85 | Kochia plant response rating (kochia (Kochia scoparia); [14]): 90 | Plant response rating, Kochia (kochia (Kochia scoparia); [15]): 100 | Plant response rating, Kochia (kochia (Kochia scoparia); [16]): 100 | Plant response rating (scale of 0 to 100), Kochia (kochia (Kochia scoparia); Preemergence, 31 g ai/ha): 60 | Plant response rating (scale of 0 to 100), Kochia (kochia (Kochia scoparia); Preemergence, 62 g ai/ha): 95 | Plant response rating, Kochia (kochia (Kochia scoparia); [17]): 80 | Plant response rating, Kochia (kochia (Kochia scoparia); [18]): 100 | Plant response rating, Kochia (kochia (Kochia scoparia); [19]): 100 | Buckwheat, Wild plant response rating [5, 14]: 90 | Plant response rating, Buckwheat, Wild [5, 15]: 100 | Plant response rating, Buckwheat, Wild [5, 16]: 100 | Plant response rating (scale of 0 to 100), Buckwheat, Wild ([5]; Preemergence, 31 g ai/ha): 0 | Plant response rating, Buckwheat, Wild [5, 20]: 0 | Plant response rating, Buckwheat, Wild [5, 17]: 20 | Plant response rating, Buckwheat, Wild [5, 18]: 35 | Plant response rating, Buckwheat, Wild [5, 19]: 100 | Barley, Spring plant response rating [6, 14]: 0 | Plant response rating, Barley, Spring [6, 15]: 15 | Plant response rating, Barley, Spring [6, 16]: 20 | Plant response rating (scale of 0 to 100), Barley, Spring ([6]; Preemergence, 31 g ai/ha): 0 | Plant response rating, Barley, Spring [6, 20]: 0 | Plant response rating, Barley, Spring [6, 17]: 0 | Plant response rating, Barley, Spring [6, 18]: 0 | Plant response rating, Barley, Spring [6, 19]: 10 | Barley, Winter plant response rating [7, 14]: 5 | Plant response rating, Barley, Winter [7, 15]: 10 | Plant response rating, Barley, Winter [7, 16]: 15 | Plant response rating (scale of 0 to 100), Barley, Winter ([7]; Preemergence, 31 g ai/ha): 0 | Plant response rating, Barley, Winter [7, 20]: 0 | Plant response rating, Barley, Winter [7, 17]: 10 | Plant response rating, Barley, Winter [7, 18]: 20 | Plant response rating, Barley, Winter [7, 19]: 5 | Lambsquarters plant response rating [8, 14]: 90 | Plant response rating, Lambsquarters [8, 15]: 100 | Plant response rating, Lambsquarters [8, 16]: 100 | Plant response rating (scale of 0 to 100), Lambsquarters ([8]; Preemergence, 31 g ai/ha): 100 | Plant response rating (scale of 0 to 100), Lambsquarters ([8]; Preemergence, 62 g ai/ha): 100 | Plant response rating, Lambsquarters [8, 17]: 100 | Plant response rating, Lambsquarters [8, 18]: 100 | Plant response rating, Lambsquarters [8, 19]: 95 | Pigweed plant response rating [9, 14]: 95 | Plant response rating, Pigweed [9, 15]: 100 | Plant response rating, Pigweed [9, 16]: 100 | Plant response rating (scale of 0 to 100), Pigweed ([9]; Preemergence, 31 g ai/ha): 100 | Plant response rating (scale of 0 to 100), Pigweed ([9]; Preemergence, 62 g ai/ha): 100 | Plant response rating, Pigweed [9, 17]: 100 | Plant response rating, Pigweed [9, 18]: 100 | Plant response rating, Pigweed [9, 19]: 100 | Field Violet plant response rating [10, 14]: 90 | Plant response rating, Field Violet [10, 15]: 100 | Plant response rating, Field Violet [10, 16]: 100 | Plant response rating (scale of 0 to 100), Field Violet ([10]; Preemergence, 31 g ai/ha): 90 | Plant response rating (scale of 0 to 100), Field Violet ([10]; Preemergence, 62 g ai/ha): 100 | Plant response rating, Field Violet [10, 17]: 100 | Plant response rating, Field Violet [10, 18]: 100 | Plant response rating, Field Violet [10, 19]: 95 | Radish, Wild plant response rating [11, 14]: 75 | Plant response rating, Radish, Wild [11, 15]: 85 | Plant response rating, Radish, Wild [11, 16]: 90 | Plant response rating (scale of 0 to 100), Radish, Wild ([11]; Preemergence, 31 g ai/ha): 45 | Plant response rating (scale of 0 to 100), Radish, Wild ([11]; Preemergence, 62 g ai/ha): 100 | Plant response rating, Radish, Wild [11, 17]: 100 | Plant response rating, Radish, Wild [11, 18]: 90 | Plant response rating, Radish, Wild [11, 19]: 75 | Windgrass plant response rating [12, 14]: 65 | Plant response rating, Windgrass [12, 15]: 75 | Plant response rating, Windgrass [12, 16]: 85 | Plant response rating (scale of 0 to 100), Windgrass ([12]; Preemergence, 31 g ai/ha): 25 | Plant response rating (scale of 0 to 100), Windgrass ([12]; Preemergence, 62 g ai/ha): 50 | Plant response rating, Windgrass [12, 17]: 75 | Plant response rating, Windgrass [12, 18]: 95 | Plant response rating, Windgrass [12, 19]: 70 | Field Poppy plant response rating [13, 14]: 20 | Plant response rating, Field Poppy [13, 15]: 65 | Plant response rating, Field Poppy [13, 16]: 75 | Plant response rating (scale of 0 to 100), Field Poppy ([13]; Preemergence, 31 g ai/ha): 10 | Plant response rating (scale of 0 to 100), Field Poppy ([13]; Preemergence, 62 g ai/ha): 10 | Plant response rating, Field Poppy [13, 17]: 100 | Plant response rating, Field Poppy [13, 18]: 100 | Plant response rating, Field Poppy [13, 19]: 55
